Results taken from paper PMC5814047, “Peptidic inhibitors of insulin-degrading enzyme with potential for dermatological applications discovered via phage display” (PLoS ONE, 2018).
Values after ≈ are worked out from the molar mass of the structure shown. Read-outs that look alike come from different tables or passages of the source. Bridge positions count the residues as written; N and C are the ends. Peptide text beside a SMILES is read from it.

Experiment: Solubility in assay medium and cell culture medium
Format: physicochemical
Settings: cosmetic-grade P12-3A, read-out: soluble up to

solubility (assay medium (PBS/0.05%BSA)): ~500 µM (≈ 715 µg/mL)
solubility (cell culture medium): ~100 µM (≈ 143 µg/mL)
SMILES: CC(C)C[C@H](NC(=O)[C@H](CO)NC(=O)[C@@H](N)CCC(N)=O)C(=O)N1CCC[C@H]1C(=O)N[C@@H](Cc1c[nH]c2ccccc12)C(=O)N[C@H]1CSSC[C@@H](C(=O)N[C@H](C(=O)N[C@H](C(N)=O)[C@@H](C)O)C(C)C)NC(=O)[C@H](Cc2c[nH]cn2)NC(=O)[C@@H]2CCCN2C(=O)[C@H](Cc2ccc(O)cc2)NC1=O [P12-3A] (H-QSLPWCYPHCVT-NH2; disulfide 6-10 (inferred))
